Measurements reported in patent publication US20230329989A1, “A PERSONAL CARE COMPOSITION COMPRISING AMINO ACIDS” (priority 2020, published 2023).

Columns and labels:
[1] = test system: S. aureus; test: Growth kinetics of S. aureus with individual amino acids; assay type: cell-based; settings: 0.1 wt % individual amino acid; for inhibition of S. aureus (in words): among the seven selected; for Absorbance at 600 nm: S. aureus, growth till 20 hours
Experimental: In order to identify a set of amino acids which are major contributors to the higher growth rate of S. aureus in Mix 7, growth kinetics experiments were carried out with all seven individual amino acids. […] The experiment was carried out for growth till 20 hours. They were carried out at 0.1 wt % concentration of the individual amino acid.

[2] = test system: S. epidermidis; test: Growth of S. epidermidis in the presence of a single amino acid as supplement; assay type: cell-based; settings: 0.1% individual amino acid in 10% TSB + 1% glucose, 37° C., 24 hrs, absorbance at 600 nm normalized to control without amino acid; for activity at 0.1 %: Staphylococcus epidermidis
Experimental: The growth of the above commensal bacteria due to the presence of each of the twenty different amino acids separately was studied. All 20 L-amino acids were procured from Hi media. The stocks were prepared in distilled water and filter sterilized by passing it through 0.22 μm filter. A 100 mM sodium phosphate buffer pH 7.4 was prepared and filter sterilized. Reaction was set up in a 96 well flat bottom transparent plate. […] The final concentration of individual amino acid was 0.1%. Each reaction was set up in triplicates. The plate was incubated at 37° C. under stationary conditions for 24 hrs. After 24 hrs, the absorbance of the plate was measured at 600 nm using TECAN plate reader. The absorbance values were then normalized to control (S. epidermidis grown in 10% TSB+1% glucose).

| SMILES | inhibition of S. aureus (in words) [1] | Absorbance at 600 nm [1] | activity at 0.1 % [2] [%] | % growth [2] [%] |
| --- | --- | --- | --- | --- |
| CC(N)C(=O)O (stereo not drawn) [Example 1A, Alanine] | maximum inhibition | 0.447 | 139 |  |
| NC(=O)C[C@H](N)C(=O)O [Example 1C, Asparagine] |  |  | 113 |  |
| NC(CC(=O)O)C(=O)O (stereo not drawn) [Example 1D, Aspartic acid] | maximum inhibition | 0.540 | 121 |  |
| NC(CS)C(=O)O (stereo not drawn) [Example 1E, Cysteine] | maximum inhibition | 0.476 | 121 |  |
| NCC(=O)O [Example 1F, Glycine] |  | 0.863 |  | 135 |
| NC(=O)CC[C@H](N)C(=O)O [Example 1H, Glutamine] |  |  | 109 |  |
| CC[C@H](C)[C@H](N)C(=O)O [Example 1J, Isoleucine] |  |  | 99 |  |
| CC(C)C[C@H](N)C(=O)O [Example 1K, Leucine] |  |  | 96 |  |
| CSCC[C@H](N)C(=O)O [Example 1M, Methionine] |  |  | 87 |  |
| O=C(O)[C@@H]1CCCN1 [Example 1O, Proline] |  |  | 93 |  |
| N[C@@H](CO)C(=O)O [Example 1P, Serine] | maximum inhibition | 0.504 | 134 |  |
| N[C@@H](Cc1ccc(O)cc1)C(=O)O [Example 1Q, Tyrosine] | maximum inhibition | 0.478 | 120 |  |
| C[C@@H](O)[C@H](N)C(=O)O [Example 1R, Threonine] |  | 0.697 | 126 |  |
| CC(C)[C@H](N)C(=O)O [Example 1T, Valine] |  |  | 96 |  |
| N[C@@H](Cc1c[nH]cn1)C(=O)O [Example 11, Histidine] |  |  | 96 |  |
